Measurements: ChEMBL document CHEMBL4477225, “Development of a cell viability assay to assess drug metabolite structure-toxicity relationships” (Bioorg Med Chem Lett, 2016)

Assays:
Settings in all cases: recombinant enzyme
[1] = biological target: T1, Cytochrome P450 2D6 (Homo sapiens, UniProt P10635); assay: (§1) Drug activation in human Hep3B cells assessed as human CYP2D6-mediated drug metabolism-induced cytotoxicity measured as decrease in cell viability at 17.6 uM pre-incubated with BSO for 18 hrs followed by incubation with compound for 3 hrs in presence of NADPH measured after 24 hrs in absence of compound, CYP3A4 and NADPH by cell titer-glo luminescence assay relative to BSO alone; type: ADME, cell-based
T1 sequence (P10635 whole entry): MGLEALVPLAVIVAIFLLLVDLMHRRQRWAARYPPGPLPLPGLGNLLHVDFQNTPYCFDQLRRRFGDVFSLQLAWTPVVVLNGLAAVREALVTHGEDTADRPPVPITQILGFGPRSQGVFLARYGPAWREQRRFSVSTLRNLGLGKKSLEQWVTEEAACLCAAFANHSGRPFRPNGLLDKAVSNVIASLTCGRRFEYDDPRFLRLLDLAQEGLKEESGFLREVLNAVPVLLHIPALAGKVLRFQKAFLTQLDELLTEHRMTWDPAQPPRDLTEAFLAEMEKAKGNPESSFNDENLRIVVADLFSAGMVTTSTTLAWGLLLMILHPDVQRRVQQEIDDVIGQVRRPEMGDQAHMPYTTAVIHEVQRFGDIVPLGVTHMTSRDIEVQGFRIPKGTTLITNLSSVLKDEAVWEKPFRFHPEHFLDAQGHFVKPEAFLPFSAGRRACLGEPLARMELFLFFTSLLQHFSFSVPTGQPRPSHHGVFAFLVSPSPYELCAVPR

[2] = biological target: T2, Cytochrome P450 3A4 (Homo sapiens, UniProt P08684); assay: as §1, with “CYP3A4-mediated” for “CYP2D6-mediated”, “69.6” for “17.6”; type: ADME, cell-based
T2 sequence (P08684 whole entry): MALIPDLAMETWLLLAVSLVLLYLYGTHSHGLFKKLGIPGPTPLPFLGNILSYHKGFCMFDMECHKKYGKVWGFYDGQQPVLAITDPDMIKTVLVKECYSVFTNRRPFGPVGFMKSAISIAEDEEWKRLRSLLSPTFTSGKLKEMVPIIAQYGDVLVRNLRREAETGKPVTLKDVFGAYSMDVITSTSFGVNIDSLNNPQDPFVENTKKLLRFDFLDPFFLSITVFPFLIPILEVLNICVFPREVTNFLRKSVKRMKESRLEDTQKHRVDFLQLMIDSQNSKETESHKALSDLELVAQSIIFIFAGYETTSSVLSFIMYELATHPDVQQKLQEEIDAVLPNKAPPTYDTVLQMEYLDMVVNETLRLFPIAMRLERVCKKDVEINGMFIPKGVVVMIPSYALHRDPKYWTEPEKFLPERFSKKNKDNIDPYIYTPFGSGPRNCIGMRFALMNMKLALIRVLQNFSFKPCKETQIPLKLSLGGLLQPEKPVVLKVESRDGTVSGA

[3] = biological target: Cytochrome P450 2C9 (Homo sapiens, UniProt P11712); assay: as §1, with “CYP2C9-mediated” for “CYP2D6-mediated”, “300” for “17.6”
Sequence of Cytochrome P450 2C9 (P11712 whole entry): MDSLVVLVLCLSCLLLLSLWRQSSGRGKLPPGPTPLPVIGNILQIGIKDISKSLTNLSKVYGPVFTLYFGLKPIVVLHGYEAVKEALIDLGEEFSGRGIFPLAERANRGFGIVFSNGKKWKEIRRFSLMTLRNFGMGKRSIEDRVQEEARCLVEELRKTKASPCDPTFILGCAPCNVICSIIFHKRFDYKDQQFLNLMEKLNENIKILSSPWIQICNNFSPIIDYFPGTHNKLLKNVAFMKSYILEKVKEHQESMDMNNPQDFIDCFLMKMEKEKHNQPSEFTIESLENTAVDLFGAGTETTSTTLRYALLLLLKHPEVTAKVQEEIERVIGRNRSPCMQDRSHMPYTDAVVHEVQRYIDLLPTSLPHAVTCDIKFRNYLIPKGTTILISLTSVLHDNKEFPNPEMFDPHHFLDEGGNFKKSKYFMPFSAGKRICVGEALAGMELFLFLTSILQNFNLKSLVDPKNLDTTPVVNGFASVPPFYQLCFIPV

[4] = biological target: T1, Cytochrome P450 2D6; assay: as §1, with “78.6” for “17.6”; type: ADME, cell-based
[5] = biological target: T2, Cytochrome P450 3A4; assay: as §1, with “CYP3A4-mediated” for “CYP2D6-mediated”, “90.1” for “17.6”; type: ADME, cell-based
[6] = biological target: T2, Cytochrome P450 3A4; assay: as §1, with “CYP3A4-mediated” for “CYP2D6-mediated”, “25.3” for “17.6”; type: ADME, cell-based
[7] = biological target: T1, Cytochrome P450 2D6; assay: as §1, with “5.8” for “17.6”; type: ADME, cell-based
[8] = biological target: T2, Cytochrome P450 3A4; assay: as §1, with “CYP3A4-mediated” for “CYP2D6-mediated”, “22.2” for “17.6”; type: ADME, cell-based
[9] = biological target: T2, Cytochrome P450 3A4; assay: as §1, with “CYP3A4-mediated” for “CYP2D6-mediated”, “56.4” for “17.6”; type: ADME, cell-based
[10] = biological target: T1, Cytochrome P450 2D6; assay: as §1, with “65.4” for “17.6”; type: ADME, cell-based
[11] = biological target: T1, Cytochrome P450 2D6; assay: as §1, with “300” for “17.6”
[12] = biological target: T2, Cytochrome P450 3A4; assay: as §1, with “CYP3A4-mediated” for “CYP2D6-mediated”, “300” for “17.6”
[13] = biological target: T2, Cytochrome P450 3A4; assay: as §1, with “CYP3A4-mediated” for “CYP2D6-mediated”, “8.7” for “17.6”; type: ADME, cell-based
[14] = biological target: T1, Cytochrome P450 2D6; assay: as §1, with “12.9” for “17.6”; type: ADME, cell-based
[15] = biological target: T1, Cytochrome P450 2D6; assay: as §1, with “264.7” for “17.6”; type: ADME, cell-based

Row | Compound | FC [3] | FC [11] | FC [12] | further results
1 | Cl.Nc1ccc(/N=N/c2ccccc2)c(N)n1 [PHENAZOPYRIDINE HYDROCHLORIDE] | 1 |  |  | fold change (FC) [1]: 17; fold change (FC) [2]: 4.3
2 | CNC(=C[N+](=O)[O-])NCCSCc1ccc(CN(C)C)o1 [RANITIDINE] | 1 |  |  | fold change (FC) [4]: 3.8; fold change (FC) [5]: 3.3
3 | CC/C(=C(\c1ccccc1)c1ccc(OCCN(C)C)cc1)c1ccccc1 [TAMOXIFEN] |  |  |  | fold change (FC) [6]: 0.8
4 | Cc1nc(C)c2c(n1)N(Cc1ccc(-c3ccccc3-c3nnn[nH]3)cc1)C(=O)CC2 [TASOSARTAN] | 1 |  |  | fold change (FC) [7]: 52; fold change (FC) [8]: 13.5
5 | CN(C)[C@@H]1C(O)=C(C(N)=O)C(=O)[C@@]2(O)C(O)=C3C(=O)c4c(O)cccc4[C@@](C)(O)[C@H]3C[C@@H]12 [TETRACYCLINE] |  |  |  | fold change (FC) [9]: 2.9; fold change (FC) [10]: 2.5
6 | Nc1nc2nc[nH]c2c(=S)[nH]1 [THIOGUANINE] | 1 | 1 | 1 | 
7 | Cc1ccc(C(=O)c2cc(O)c(O)c([N+](=O)[O-])c2)cc1 [TOLCAPONE] | 1 | 1 | 1 | 
8 | O=c1n(CCCN2CCN(c3cccc(Cl)c3)CC2)nc2ccccn12 [TRAZODONE] | 1 |  |  | fold change (FC) [13]: 34.4; fold change (FC) [14]: 23.2
9 | N[C@@H]1[C@H]2CN(c3nc4c(cc3F)c(=O)c(C(=O)O)cn4-c3ccc(F)cc3F)C[C@@H]12 [TROVAFLOXACIN] | 1 |  | 1 | fold change (FC) [15]: 1.1
10 | CCCC(CCC)C(=O)O [VALPROIC ACID] | 1 | 1 | 1 | 
11 | CC(=O)CC(c1ccccc1)c1c(O)c2ccccc2oc1=O (stereo unspecified) [WARFARIN] | 1 | 1 | 1 | 
12 | Nc1ccn([C@H]2CC[C@@H](CO)O2)c(=O)n1 [ZALCITABINE] | 1 | 1 | 1 | 
13 | Cc1cn([C@H]2C[C@H](N=[N+]=[N-])[C@@H](CO)O2)c(=O)[nH]c1=O [ZIDOVUDINE] | 1 | 1 | 1 | 
